Laboratory results as given in PubChem BioAssay (NCI).
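Five concentrations, 48 hours, 96-well plates. Definition used: TGI = concentration required for complete inhibition of growth.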

Assays:
Assay in all cases: inhibition of tumour cell growth, NCI panel, 48 h
HOP-18 NSCLC = test system: HOP-18 NSCLC
M19-MEL melanoma = test system: M19-MEL melanoma
XF 498 CNS = test system: XF 498 CNS
RPMI-8226 leukemia = test system: RPMI-8226 leukemia
HCC-2998 colon = test system: HCC-2998 colon
DMS 273 small cell lung = test system: DMS 273 small cell lung
NCI-H23 lung = test system: NCI-H23 lung
OVCAR-5 ovarian = test system: OVCAR-5 ovarian
NCI-H226 lung = test system: NCI-H226 lung
OVCAR-8 ovarian = test system: OVCAR-8 ovarian
OVCAR-4 ovarian = test system: OVCAR-4 ovarian
COLO 205 colon = test system: COLO 205 colon
ACHN renal = test system: ACHN renal
OVCAR-3 ovarian = test system: OVCAR-3 ovarian
HT29 colon = test system: HT29 colon
UACC-257 melanoma = test system: UACC-257 melanoma
DMS 114 small cell lung = test system: DMS 114 small cell lung
HL-60(TB) leukemia = test system: HL-60(TB) leukemia
HCT-15 colon = test system: HCT-15 colon
M14 melanoma = test system: M14 melanoma
MALME-3M melanoma = test system: MALME-3M melanoma
HCT-116 colon = test system: HCT-116 colon
HOP-62 NSCLC = test system: HOP-62 NSCLC
SK-MEL-2 melanoma = test system: SK-MEL-2 melanoma
EKVX NSCLC = test system: EKVX NSCLC
SK-MEL-28 melanoma = test system: SK-MEL-28 melanoma
UO-31 renal = test system: UO-31 renal
TK-10 renal = test system: TK-10 renal
NCI-H522 lung = test system: NCI-H522 lung
A549 NSCLC = test system: A549 NSCLC
CAKI-1 renal = test system: CAKI-1 renal
LOX IMVI melanoma = test system: LOX IMVI melanoma
SNB-78 CNS = test system: SNB-78 CNS
786-0 renal = test system: 786-0 renal
SNB-19 CNS = test system: SNB-19 CNS
SN12C renal = test system: SN12C renal
SF-295 CNS = test system: SF-295 CNS
MOLT-4 leukemia = test system: MOLT-4 leukemia
SW-620 colon = test system: SW-620 colon
SR leukemia = test system: SR leukemia
SF-539 CNS = test system: SF-539 CNS
KM12 colon = test system: KM12 colon
K-562 leukemia = test system: K-562 leukemia
SNB-75 CNS = test system: SNB-75 CNS
CCRF-CEM leukemia = test system: CCRF-CEM leukemia
SF-268 CNS = test system: SF-268 CNS
NCI-H460 lung = test system: NCI-H460 lung
RXF 393 renal = test system: RXF 393 renal
DLD-1 colon = test system: DLD-1 colon
A498 renal = test system: A498 renal
IGROV1 ovarian = test system: IGROV1 ovarian
U251 CNS = test system: U251 CNS
KM20L2 colon = test system: KM20L2 colon
UACC-62 melanoma = test system: UACC-62 melanoma
LXFL 529 NSCLC = test system: LXFL 529 NSCLC
RXF-631 renal = test system: RXF-631 renal
HOP-92 NSCLC = test system: HOP-92 NSCLC
SK-OV-3 ovarian = test system: SK-OV-3 ovarian

Work on `COc1ccc(/C=C2\C(=O)N(C(=O)Cc3ccccc3)N=C2C)cc1OC` yielded a TGI (HOP-18 NSCLC) of over 100 µM, a TGI (M19-MEL melanoma) of over 100 µM and a TGI (XF 498 CNS) of over 100 µM. The TGI (RPMI-8226 leukemia) was over 100 µM, the TGI (HCC-2998 colon) was over 100 µM and the TGI (DMS 273 small cell lung) was over 100 µM. For the same compound, the TGI (NCI-H23 lung) was over 100 µM, the TGI (OVCAR-5 ovarian) was over 100 µM and the TGI (NCI-H226 lung) was over 100 µM. The TGI (OVCAR-8 ovarian) was over 100 µM, the TGI (OVCAR-4 ovarian) was over 100 µM and the TGI (COLO 205 colon) was over 100 µM. For the same compound, the TGI (ACHN renal) was over 100 µM, the TGI (OVCAR-3 ovarian) was over 100 µM and the TGI (HT29 colon) was over 100 µM. The TGI (UACC-257 melanoma) was over 100 µM, the TGI (DMS 114 small cell lung) was over 100 µM and the TGI (HL-60(TB) leukemia) was over 100 µM. The TGI (HCT-15 colon) was over 100 µM, the TGI (M14 melanoma) was over 100 µM and the TGI (MALME-3M melanoma) was over 100 µM. It also gave a TGI (HCT-116 colon) of over 100 µM, a TGI (HOP-62 NSCLC) of over 100 µM and a TGI (SK-MEL-2 melanoma) of over 100 µM. It also gave a TGI (EKVX NSCLC) of over 100 µM, a TGI (SK-MEL-28 melanoma) of over 100 µM and a TGI (UO-31 renal) of over 100 µM. For the same compound, the TGI (TK-10 renal) was over 100 µM, the TGI (NCI-H522 lung) was over 100 µM and the TGI (A549 NSCLC) was over 100 µM. For the same compound, the TGI (CAKI-1 renal) was over 100 µM, the TGI (LOX IMVI melanoma) was over 100 µM and the TGI (SNB-78 CNS) was over 100 µM. For the same compound, the TGI (786-0 renal) was over 100 µM, the TGI (SNB-19 CNS) was over 100 µM and the TGI (SN12C renal) was over 100 µM. It also gave a TGI (SF-295 CNS) of over 100 µM, a TGI (MOLT-4 leukemia) of over 100 µM and a TGI (SW-620 colon) of over 100 µM. It also gave a TGI (SR leukemia) of over 100 µM, a TGI (SF-539 CNS) of over 100 µM and a TGI (KM12 colon) of over 100 µM. For the same compound, the TGI (K-562 leukemia) was over 100 µM, the TGI (SNB-75 CNS) was over 100 µM and the TGI (CCRF-CEM leukemia) was over 100 µM. It also gave a TGI (SF-268 CNS) of over 100 µM.
`Cc1cc2c(=O)c3ccccc3[nH]c2c(C(=O)O)c1C` gave a TGI (M19-MEL melanoma) of over 100 µM, a TGI (XF 498 CNS) of over 100 µM and a TGI (RPMI-8226 leukemia) of over 100 µM. For the same compound, the TGI (HCC-2998 colon) was over 100 µM, the TGI (DMS 273 small cell lung) was over 100 µM and the TGI (NCI-H23 lung) was over 100 µM. It also gave a TGI (NCI-H460 lung) of over 100 µM, a TGI (OVCAR-8 ovarian) of over 100 µM and a TGI (RXF 393 renal) of over 100 µM. For the same compound, the TGI (OVCAR-4 ovarian) was over 100 µM, the TGI (COLO 205 colon) was over 100 µM and the TGI (DLD-1 colon) was over 100 µM. It also gave a TGI (ACHN renal) of over 100 µM, a TGI (OVCAR-3 ovarian) of over 100 µM and a TGI (HT29 colon) of over 100 µM. It also gave a TGI (UACC-257 melanoma) of over 100 µM, a TGI (DMS 114 small cell lung) of over 100 µM and a TGI (HL-60(TB) leukemia) of over 100 µM. The TGI (A498 renal) was over 100 µM, the TGI (HCT-15 colon) was over 100 µM and the TGI (HCT-116 colon) was over 100 µM. It also gave a TGI (IGROV1 ovarian) of over 100 µM, a TGI (HOP-62 NSCLC) of over 100 µM and a TGI (SK-MEL-2 melanoma) of over 100 µM. It also gave a TGI (EKVX NSCLC) of over 100 µM, a TGI (SK-MEL-28 melanoma) of over 100 µM and a TGI (UO-31 renal) of 87.5 µM. For the same compound, the TGI (U251 CNS) was over 100 µM, the TGI (A549 NSCLC) was over 100 µM and the TGI (KM20L2 colon) was over 100 µM. For the same compound, the TGI (CAKI-1 renal) was over 100 µM, the TGI (UACC-62 melanoma) was over 100 µM and the TGI (SNB-78 CNS) was over 100 µM. For the same compound, the TGI (786-0 renal) was over 100 µM, the TGI (SNB-19 CNS) was over 100 µM and the TGI (SN12C renal) was over 100 µM. It also gave a TGI (SF-295 CNS) of over 100 µM, a TGI (MOLT-4 leukemia) of over 100 µM and a TGI (SW-620 colon) of over 100 µM. For the same compound, the TGI (SR leukemia) was over 100 µM, the TGI (SF-539 CNS) was over 100 µM and the TGI (KM12 colon) was over 100 µM. The TGI (LXFL 529 NSCLC) was over 100 µM, the TGI (K-562 leukemia) was over 100 µM and the TGI (SNB-75 CNS) was over 100 µM. The TGI (CCRF-CEM leukemia) was over 100 µM.
In the case of `CCN(CC)C1CC(n2cc(C)c(=O)[nH]c2=O)OC1CO` (stereo unspecified), the TGI (M19-MEL melanoma) is reported as over 100 µM, the TGI (XF 498 CNS) is reported as over 100 µM and the TGI (RPMI-8226 leukemia) is reported as over 100 µM. It also gave a TGI (HCC-2998 colon) of over 100 µM, a TGI (DMS 273 small cell lung) of over 100 µM and a TGI (NCI-H23 lung) of over 100 µM. The TGI (NCI-H460 lung) was over 100 µM, the TGI (NCI-H226 lung) was over 100 µM and the TGI (OVCAR-4 ovarian) was over 100 µM. The TGI (COLO 205 colon) was over 100 µM, the TGI (DLD-1 colon) was over 100 µM and the TGI (DMS 114 small cell lung) was over 100 µM. It also gave a TGI (HL-60(TB) leukemia) of over 100 µM, a TGI (A498 renal) of over 100 µM and a TGI (M14 melanoma) of over 100 µM. The TGI (MALME-3M melanoma) was over 100 µM, the TGI (RXF-631 renal) was over 100 µM and the TGI (HCT-116 colon) was over 100 µM. It also gave a TGI (IGROV1 ovarian) of over 100 µM, a TGI (HOP-62 NSCLC) of over 100 µM and a TGI (SK-MEL-2 melanoma) of over 100 µM. For the same compound, the TGI (SK-MEL-28 melanoma) was over 100 µM, the TGI (UO-31 renal) was over 100 µM and the TGI (NCI-H522 lung) was over 100 µM. It also gave a TGI (CAKI-1 renal) of over 100 µM, a TGI (UACC-62 melanoma) of over 100 µM and a TGI (SNB-78 CNS) of over 100 µM. For the same compound, the TGI (786-0 renal) was over 100 µM, the TGI (HOP-92 NSCLC) was over 100 µM and the TGI (SN12C renal) was over 100 µM. The TGI (MOLT-4 leukemia) was over 100 µM, the TGI (SK-OV-3 ovarian) was over 100 µM and the TGI (SR leukemia) was over 100 µM. It also gave a TGI (SF-539 CNS) of over 100 µM, a TGI (LXFL 529 NSCLC) of over 100 µM and a TGI (K-562 leukemia) of over 100 µM. For the same compound, the TGI (SNB-75 CNS) was over 100 µM, the TGI (CCRF-CEM leukemia) was over 100 µM and the TGI (SF-268 CNS) was over 100 µM.
